# Laboratory results: US10806798B2, “Compound with effects of thrombolysis, free radical scavenging and thrombus-targeting” (Shanghai Lumosa Therapeutics Co., Ltd., priority 2012, dated 2020)
# Marks after values point to notes of the source that are not given here.
# Columns and labels:
# [1] = test system: thrombus from rat arterial blood; assay: In vitro thrombolysis; parameters: species or system SD rats; conditions: 100 nM, 2 h at 37° C., n = 6
# Experimental: SD rats (male, 350 to 400 g) were anaesthetized by intraperitoneal injection of a urethane solution at a dosage of 1200 mg/kg. The anaesthetized rats were fixed in a supine position, and the right common carotid artery was dissected, clamped at the proximal end with an arterial clip, and penetrated with a suture at the proximal and distal ends, respectively. The suture at the distal end is clipped tightly by a hemostatic clamp at the fur. Cannulation was performed at the distal end, the artery clamp was removed, and the total arterial blood was discharged into a 50 ml container previously treated with silicone oil. […] rat arterial blood was injected into a vertically fixed glass tube (20 mm in length, with an inner diameter of 4 mm and an outer diameter of 5 mm, sealed with a rubber stopper at the bottom), into which was immediately inserted a thrombus immobilization screw made of stainless steel. […] 40 min after the blood was coagulated, the rubber stopper at the bottom of the glass tube was removed, the stem of the thrombus immobilization screw was nipped by forceps, and the thrombus-wrapped thrombus immobilization screw was carefully taken out from the glass tube. The screw was then suspended and dipped in triple-distilled water to remove excessive blood, and accurately weighed after 1 h. The thrombus was suspended in 8 mL of normal saline, or a solution of compounds Ia-Il in normal saline (at a concentration of 100 nM), or a solution of ARPAK (SEQ. ID NO. 4), GRPAK (SEQ. ID NO. 5), RPAK (SEQ. ID NO. 3) or PAK in normal saline (at a concentration of 100 nM), or a solution of urokinase in normal saline (100 IU/mL), then shaked at 37° C. in a thermostatic shaker (63 r/min), and removed after 2 h and accurately weighed to determine the weight of the thrombus.
# thrombus [2] = assay: In vivo thrombolysis, rat arteriovenous bypass thrombolysis model; parameters: species or system SD rats; conditions: 1 μmol/kg, after 1 h, n = 10
# Experimental: SD rats (male, 220 to 230 g) were anaesthetized by intraperitoneal injection of a urethane solution at a dosage of 1200 mg/kg. The anaesthetized rats were fixed in a supine position, and the right common carotid artery was dissected, clamped at the proximal end with an arterial clip, and penetrated with a suture at the proximal and distal ends, respectively. The suture at the distal end is clipped tightly by a hemostatic clamp at the fur. Cannulation was performed at the distal end, the arterial clamp was removed, and about 1 ml arterial blood was discharged into a 1 ml eppendorf. 0.1 ml rat arterial blood was injected into a vertically fixed glass tube (15 mm in length, with an inner diameter of 2.5 mm and an outer diameter of 5.0 mm, sealed with a rubber stopper at the bottom), into which was immediately inserted a thrombus immobilization screw made of stainless steel. […] 15 min after the blood was coagulated, the rubber stopper at the bottom of the glass tube was removed, the stem of the thrombus immobilization screw was nipped by forceps, and the thrombus-wrapped thrombus immobilization screw was carefully taken out of the glass tube and then accurately weighed.
# A bypass cannula was composed of 3 segments. The middle segment was a polyethylene tubing having a length of 60.0 mm and an inner diameter of 3.5 mm. The segments on both ends were similar polyethylene tubes having a length of 100.0 mm, an inner diameter of 1.0 mm and an outer diameter of 2.0 mm, one end of which was pulled to form a tip, with an outer diameter of 1.0 mm, that could be inserted into the rat carotid artery or vein, and the other end of which was sheathed by a polyethylene tube having a length of 7.0 mm and an outer diameter of 3.5 mm (thickened in order to be inserted into the polyethylene tubing of the middle segment). The inner wall of the 3-segment cannula was entirely silylated (with 1% silicone oil in ethyl ether). The thrombus-wrapped thrombus immobilization screw was placed into the polyethylene tubing of the middle segment, and both ends of the tubing sheathed the thickened ends of the two polyethylene tubes. The cannula was filled with a heparin solution in normal saline (50 IU/kg) through the tip end by using an injector and was ready for use. The trachea of the anaesthetized rat was then dissected and tracheal cannulation was performed. The left external carotid vein of the rat was dissected, and penetrated with a suture at the proximal and distal ends, respectively. An uneven open incision was careful made on the exposed left external carotid vein, and the tip of the bypass cannula prepared as described above was inserted into the proximal end of the open incision in the left external carotid vein, away from the stem of the thrombus immobilization screw in the middle segment of the bypass cannula (which accommodated the accurately weighed thrombus immobilization screw). A precise amount of heparin in saline (50 IU/kg) was injected through the tip at the other end by using an injector. At this moment, without removing the injector from the ethylene tube, the tubing between the injector and the polyethylene tube was clamped with forceps. The blood flow was stopped by clamping the proximal end of the right common carotid artery with an arterial clip, and an uneven open incision was cut carefully across the common carotid artery near the clip. The injector was pulled out of the tip of the polyethylene tube, and the tip of the polyethylene tube was then inserted into the proximal end of the artery open incision. Both ends of the bypass cannula were fixed to the artery or vein with #4 sutures. […]
# rats with stroke [3] = assay: Cerebral infarction volume after immediate treatment of stroke (TTC staining); assay type: in vivo, SD rats; conditions: 1 μmol/kg; immediate treatment; n = 10
# Experimental: After the rats were awake for 24 h and assessed for their degree of damage in neural function in Experimental example 6, they were anesthesized with urethane followed by immediate decapitation and removal of the brain. Brain tissues were kept in a −20° C. refrigerator for 2 h, and coronal sections of about 2 mm were successively sliced from the prefrontal end for a total of 6 sections, and then placed into a 2% TTC solution to incubate in darkness at 37° C. for 30 min. The color change in brain sections was observed: normal brain tissues were stained red by TTC, while ischemic brain tissues, i.e., brain tissues with infracts, appeared in a white color. Photographs were taken by using a digital camera and processed with SPSS statistics software, and the volume of infarction in brain tissues and the volume of normal brain tissues in the coronal sections were calculated.
# thrombus [4] = assay: In vivo anti-thrombus experiment (arteriovenous cannula with thread); parameters: species or system SD rats; conditions: n = 11
# Experimental: SD rats (male, 220 to 230 g) were randomly divided into groups with 11 rats in each group. The rats were fed at a resting state for 1 day and fasted overnight. […] After 30 min, the rats were anesthetized with a 20% urethane solution, and the right carotid artery and the left carotid vein were dissected. A cannula was filled with sodium heparin in normal saline, and one end thereof was inserted into the left vein, while the other end was injected with a certain amount of sodium heparin for anticoagulation with an injector and then inserted into the right artery. Blood flew from the right artery to the left vein through the polyethylene tubing, and the thread attached with thrombus was taken out after 15 min and the weight thereof was recorded. The wet thrombus weight was determined by subtracting the thread weight from the total weight.
# [5] = test system: NO free radicals (acetylcholine induced vasodilation); assay: NO radical scavenging: inhibition of acetylcholine induced vasodilation of aorta rings; parameters: species or system Wistar rats; conditions: final concentration 5×10^−6 M; n = 6
# Experimental: Male Wistar rats weighing 250 to 300 g were starved for 12 h before operation with free access to drinking water, and sacrificed by cervical dislocation. Thoracotomy was immediately carried out and thoracic aorta was taken out, connective tissues attached thereto were dissected, and vessels were cut into aorta rings with a length of 3 to 5 mm and placed into a perfusion bath. The bath contained 15 ml Krebs-Henseleit solution and was kept at a constant temperature of 37° C., into which 95% O2-5% CO2 gas was charged. The anchor to which the aorta rings were immobilized was connected to a tension transducer, and vasomotion curves were recorded on a dual-trace recorder at a paper speed of 1 mm/min. With the static tension adjusted to 1.0 g and 30 min of equilibration, norepinephrine at a final concentration of 10^−8 M was dosed to allow the aorta to contract for preexcitation. Norepinephrine was washed off, followed by 30 min of equilibration, and norepinephrine was added into the bath to a final concentration of 10^−8 M. When the contraction tension was steady at a plateau level, 20 μl normal saline (blank), a 20 μl solution of any one of compounds Ia to Il in normal saline (at a final concentration of 5×10^−6 M), or a 20 μl solution of NO free radical scavenger (1,3-dioxo-2-(4′-oxyacetoxyl-phenyl)-4,4,5,5-tetramethylimidazoline, TMMZ) in normal saline (at a final concentration of 5×10^−6 M) was added into the bath. When stabilized, a 20 μl acetylcholine in normal saline was added (at a final concentration of 10^−6 M). The NO scavenging ability of the drugs was expressed as a percentage of inhibition of acetylcholine induced vasodilation.
# rats with stroke [6] = assay: Immediate treatment after stroke onset, neural function scores (Zealonga method, 0 no loss to 5 death); assay type: in vivo, SD rats; conditions: 1 μmol/kg, 24 h after awake
# Experimental: The in vivo anti-stroke activity of the present invention was represented by neural function scores, with a lower score indicating higher activity. A 10% chloral hydrate solution (400 mg/kg) was injected intraperitoneally into SD male rats (250-300 g) for anesthesia. An open incision of 2 cm in length was longitudinally made slightly on the right to the center of the neck, and the right common carotid artery trunk, carotid external artery and carotid internal artery were dissected along the margin of the inner side of sternocleidomastoid muscles. The open incisions in the carotid internal artery and the proximal end of the common carotid artery were occluded respectively with noninvasive arterial clips. A small open incision was made across the carotid external artery, and the distal end of the carotid external artery was ligated. The arterial clip at the proximal end of the carotid external artery was released, and 10 μl blood was drawn before the proximal end of the common carotid artery was again occluded with the noninvasive arterial clip. The 10 μl blood drawn was placed in a 1 mL EP vial and kept at RT for 30 min for coagulation of blood, and then transferred into a −20° C. refrigerator for 1 h to allow coagulation. After 1 h, the blood clots were taken out, into which 1 mL saline was added, and then broken into uniform microthrombus by using a steel spatula. The microthrombus suspension was then transferred to a 1 mL injector until use. At the same time when the clip on the carotid internal artery of the rat was released, 1 mL thrombus suspension in the injector was slowly injected from the carotid external artery of the rat to its proximal end, and the suspension was injected into the brain of the rat through the carotid internal artery. Subsequently, the proximal end of the carotid external artery was ligated, the arterial clips on the carotid internal artery and the common carotid artery were released, and blood flow was restored. The jugular common vein of the rats was dissected. The vein was immediately ligated, 3 drops of penicillin was dropped at the wound site, the wound was stitched up, and the animals were allowed to come around, as the sham operation group. Or injection of urokinase in normal saline (positive control group, at a dosage of 20000 IU/kg), normal saline (blank control group, at a dosage of 3 ml/kg), TMMZ in normal saline (component control group, at a dosage of 1 μmol/kg), a thrombolytic peptide ARPAK (SEQ. ID NO. 4), GRPAK (SEQ. ID NO. 5), RPAK (SEQ. ID NO. 3) or PAK in normal saline (component control group, at a dosage of 1 μmol/kg), or one of compounds Ia-Il in normal saline (at a dosage of 0.1 μmol/kg) was carried out. 24 h after the rats were awake, the degree of damage in the neural function was evaluated by the Zealonga method. A score of 0 indicated no sign of loss in neural function, 1 indicated the front limbs on the undamaged side could not stretch out, 2 indicated walking toward the undamaged side, 3 indicated tail-chasing walking in circles toward the undamaged side, 4 indicated involuntary walking with disturbance of consciousness, and 5 indicated death.
Compound,Weight reduction in thrombus (Mean ± SD mg) [1] [mg],Weight reduction in thrombus (Mean ± SD mg) (thrombus [2]) [mg],Percentage of infarction volume (Mean ± SD %) (rats with stroke [3]),Wet weight of thrombus (Mean ± SD mg) (thrombus [4]; 10 μmol/kg by gavage) [mg],further results
"Pro-Ala-Lys [PAK, reference compound]",26.67 ± 3.20,15.00 ± 2.61,22.07 ± 2.40 ^a %,,
"Arg-Gly-Asp-Ser (RGDS) [RGDS (SEQ. ID NO. 11), targeting peptide, reference compound]",,,,20.02 ± 2.35,
"CC1(C)N([O])C(c2ccc(OCC(=O)O)cc2)=[N+]([O-])C1(C)C [TMMZ, 1,3-dioxo-2-(4′-oxyacetoxy-phenyl)-4,4,5,5-tetramethylimidazoline, reference compound]",,,22.96 ± 2.43 ^a %,,Percentage of inhibition (Mean ± SD %) of vasodilatation induced by acetylcholine [5]: 15.47%; Neural function scores (Mean ± SD) (rats with stroke [6]; n = 10): 2.83 ± 0.75 ^a
"Arg-Pro-Ala-Lys (RPAK) [RPAK (SEQ. ID NO. 3), thrombolytic peptide, component control, reference compound]",26.01 ± 3.11,15.67 ± 2.61,22.11 ± 2.25 ^a %,,"Neural function scores (Mean ± SD) (rats with stroke [6]; n = 10): did not exhibit anti-stroke activity; Neural function scores (Mean ± SD) (rats with stroke [6]; n = 10, listed as RPAKI (SEQ. ID NO. 3)): 2.38 ± 0.97 ^a"
"Arg-Gly-Asp-Phe (RGDF) [RGDF (SEQ. ID NO. 13), targeting peptide, reference compound]",,,,19.55 ± 2.21,
"CC(=O)Oc1ccccc1C(=O)O [aspirin, reference compound]",,,,,Wet weight of thrombus (Mean ± SD mg) (thrombus [4]; aspirin 33 mg/kg by gavage): 12.85 ± 2.49 ^a mg
"Arg-Gly-Asp-Val (RGDV) [RGDV (SEQ. ID NO. 12), targeting peptide, reference compound]",,,,21.26 ± 2.07,
"Gly-Arg-Pro-Ala-Lys (GRPAK) [GRPAK (SEQ. ID NO. 5), thrombolytic peptide, component control, reference compound]",15.47 ± 2.61,15.47 ± 2.61,21.77 ± 2.46 ^a %,,
"Ala-Arg-Pro-Ala-Lys (ARPAK) [ARPAK (SEQ. ID NO. 4), thrombolytic peptide, component control, reference compound]",26.35 ± 3.10,15.20 ± 2.55,22.00 ± 2.20 ^a %,,
